Test results from patent US7973050B2, “Enantiomeric compounds with antibacterial activity” (Crestone, Inc., priority 2006, dated 2011).
pKi: −log10 of the molar value. Values after ≈ are worked out from the molar mass of the structure shown. Structures can show the parent of a compound that is named as a salt. Where two headings read alike, the source gives them in different places.

What was measured:
[1] = molecular target: Clostridium difficile MetRS (Clostridioides difficile, UniProt Q181D9, C642S); test: C. difficile MetRS inhibition (tRNA charging SPA assay); type: biochemical
Clostridium difficile MetRS, sequence (Q181D9 2-645 C642S): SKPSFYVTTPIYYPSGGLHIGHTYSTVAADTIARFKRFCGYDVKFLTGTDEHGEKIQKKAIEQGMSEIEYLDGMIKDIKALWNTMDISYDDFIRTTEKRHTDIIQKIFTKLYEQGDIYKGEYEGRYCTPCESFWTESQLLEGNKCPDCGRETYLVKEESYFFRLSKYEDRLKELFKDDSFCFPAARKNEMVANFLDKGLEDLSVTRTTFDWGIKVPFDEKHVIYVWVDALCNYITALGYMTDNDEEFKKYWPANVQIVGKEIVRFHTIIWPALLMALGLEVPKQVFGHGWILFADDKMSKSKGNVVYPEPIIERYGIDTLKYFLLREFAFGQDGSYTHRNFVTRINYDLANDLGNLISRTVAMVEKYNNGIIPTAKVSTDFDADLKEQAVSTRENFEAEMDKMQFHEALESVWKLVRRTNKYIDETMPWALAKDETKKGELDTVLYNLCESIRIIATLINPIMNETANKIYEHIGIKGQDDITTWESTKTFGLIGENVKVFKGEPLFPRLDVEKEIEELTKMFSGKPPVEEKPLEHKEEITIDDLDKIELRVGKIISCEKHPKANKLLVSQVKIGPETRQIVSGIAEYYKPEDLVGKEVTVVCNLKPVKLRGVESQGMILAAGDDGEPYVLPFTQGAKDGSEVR
Description: Compounds of the present invention were assayed to determine their ability to inhibit MetRS. Assays were performed as follows:
Each reaction was started by adding 20 μl appropriately diluted pure enzyme (pre-incubated with inhibitor) to 25 μl reaction mix for 10 min at room temperature. The reaction is terminated by the addition of 150 μl 167 mM sodium citrate, pH 2.15 containing phosphodiesterase (PDE) SPA beads (0.833 mg/ml). The binding of the radiolabelled product to the bead brings the isotope into close enough proximity to allow radiation from the tritium to excite the scintillant within the bead. Any unbound radiolabel is not close enough to the scintillant to allow this energy transfer, so no signal is generated. Following termination of the reaction, plates are spun at 2500 rpm for 5 min in a Mistral 3000E plate centrifuge (or alternatively allowed to stand for 1 hour). The assay is conducted in 96-well Optiplates (Packard). Plates are counted on a TopCount. (Packard 96 well counter).
Mixed E. coli MRE 600 tRNA and ATP were purchased from Boehringer-Mannheim, L-[methyl-^3H]methionine and phosphodiesterase scintillation proximity (SPA) beads from Amersham Pharmacia Biotech and other reagents from Sigma.

[2] = tested on: rat MetRS; test: Mammalian MetRS inhibition (selectivity); type: biochemical; conditions: mammalian enzyme
[3] = tested on: C. difficile; test: MIC90 against C. difficile clinical isolates, agar dilution (CLSI); type: cell-based; conditions: Clostridioides difficile, read-out: MIC90 against Clostridium difficile
[4] = tested on: C. difficile; test: C. difficile-infected hamster survival study; type: in vivo
Description: Animal studies were performed to determine the efficacy of MetRS inhibitors for treating C. difficile-infections. The MetRS inhibitors tested were 5-[3-((R)-6,8-Dibromo-chroman-4-ylamino)-propylamino]-4H-thieno[3,2-b]pyridine-7-one (both racemic mixture and the R enantiomer) and 5-[3-((R)-8-Bromo-6-chloro-chroman-4-ylamino)-propylamino]-4H-thieno[3,2-b]pyridin-7-one. Also tested was 2-(3-{3,5-Dibromo-2-[2-(4-methyl-thiazol-5-yl)-ethoxy]-benzylamino}-propylamino)-1H-quinolin-4-one.
Results were compared to C. difficile-infected hamsters treated with the conventional antibiotic, vancomycin. Infected hamsters were treated with either a solution or suspension of a MetRS inhibitor at 5 to 50 mg/kg or vancomycin at 2.5, 5 or 25 mg/kg. There were eight hamsters per group with the final endpoint of the experiment being survival. Expired hamsters were examined for GI condition.

[5] = tested on: C. difficile clinical isolates (spore production); test: C. difficile sporulation on agar with subMIC drug; type: cell-based, Clostridium difficile; conditions: 96 hours
[6] = range stated for the group of listed examples, read-out: Ki, inhibition of Clostridium difficile MetRS
[7] = agar dilution, clinical isolates, 24 hours at 35° C. anaerobic, range stated for the group

O=c1cc(NCCCN[C@H]2COc3c(Br)cc(Br)cc32)[nH]c2ccsc12 [Example 12, 5-[3-((R)-5,7-Dibromo-2,3-dihydro-benzofuran-3-ylamino)-propylamino]-4H-thieno[3,2-b]pyridine-7-one]
pKi [1, 6]: 7.10 to 7.62

O=c1cc(NCCCN[C@H]2CCNc3c(Br)cc(Br)cc32)[nH]c2ccsc12 (single isomer, unassigned) [Example 9, tri-hydrochloride]
pKi [1]: 7.10 to 7.62

O=c1cc(NCCCN[C@@H]2CCCc3c(Br)cc(Br)cc32)[nH]c2ccsc12 [Example 10, 5-[3-((R)-5,7-Dibromo-1,2,3,4-tetrahydro-naphthalen-1-ylamino)-propylamino]-4H-thieno[3,2-b]pyridine-7-one]
inhibition of mammalian (rat) MetRS [2]: no inhibition
MIC90 [3, 7]: 0.25 to 4 mg/L (≈ 0.489 to 7.82 µM)
pKi [1, 6]: 10.60 to 10.82

CN[C@H](CC(C)C)C(=O)N[C@H]1C(=O)N[C@@H](CC(N)=O)C(=O)N[C@H]2C(=O)N[C@H]3C(=O)N[C@H](C(=O)N[C@H](C(=O)O)c4cc(O)cc(O)c4-c4cc3ccc4O)[C@H](O)c3ccc(c(Cl)c3)Oc3cc2cc(c3O[C@@H]2O[C@H](CO)[C@@H](O)[C@H](O)[C@H]2O[C@H]2C[C@](C)(N)[C@H](O)[C@H](C)O2)Oc2ccc(cc2Cl)[C@H]1O [vancomycin, reference compound]
survival on Day 28 (vancomycin comparator) ([4]; C. difficile-infected hamsters, vancomycin at 2.5, 5 or 25 mg/kg): 0-10%

O=c1cc(NCCCN[C@@H]2CCOc3c(Br)cc(Br)cc32)[nH]c2ccsc12 (single isomer, unassigned) [Example 2, di-hydrochloride]
efficacy (survival) in infected hamsters, in words ([4]; MetRS inhibitor at 5 to 50 mg/kg, solution or suspension): best efficacy
inhibition of mammalian (rat) MetRS [2]: no inhibition
spores (ratio of spores to total cells) at 0.25×MIC ([5]; all strains, 0.25×MIC): < 2%
spores (ratio of spores to total cells) at 0.5×MIC ([5]; all strains, 0.5×MIC): < 1%
effect on spore production, in words ([5]; subMIC concentrations): effective in preventing vegetative cells of C. difficile from forming spores
MIC90 [3, 7]: 0.25 to 4 mg/L
pKi [1]: 10.60 to 10.82

O=c1cc(NCCCN[C@H]2CCOc3c(Br)cc(Cl)cc32)[nH]c2ccsc12 (single isomer, unassigned) [Example 5, di-hydrochloride]
pKi [1]: 7.10 to 7.62

O=c1cc(NCCCN[C@@H]2CCOc3c(Br)cc(Cl)cc32)[nH]c2ccsc12 (single isomer, unassigned) [Example 4, di-hydrochloride]
inhibition of mammalian (rat) MetRS [2]: no inhibition
MIC90 ([3]; 24 h): 0.25 to 4 mg/L
pKi [1]: 10.60 to 10.82

O=c1cc(NCCCN[C@H]2CCOc3c(Br)cc(Br)cc32)[nH]c2ccsc12 (single isomer, unassigned) [Example 3, di-hydrochloride]
pKi [1]: 7.10 to 7.62

Cc1ncc([N+](=O)[O-])n1CCO [metronidazole, reference compound]
spores after exposure to subMIC concentrations ([5]; all tested strains, subMIC): up to 100%

O=c1cc(NCCCN[C@@H]2COc3c(Br)cc(Br)cc32)[nH]c2ccsc12 [Example 11, 5-[3-((S)-5,7-Dibromo-2,3-dihydro-benzofuran-3-ylamino)-propylamino]-4H-thieno[3,2-b]pyridine-7-one]
inhibition of mammalian (rat) MetRS [2]: no inhibition
MIC90 [3, 7]: 0.25 to 4 mg/L (≈ 0.501 to 8.01 µM)
pKi [1, 6]: 10.60 to 10.82

O=c1cc(NCCCN[C@@H]2CCOc3c(Br)cc(Br)cc32)[nH]c2ccccc12 (single isomer, unassigned) [Example 6, di-hydrochloride]
inhibition of mammalian (rat) MetRS [2]: no inhibition
MIC90 ([3]; 24 h): 0.25 to 4 mg/L
pKi [1]: 10.60 to 10.82

O=c1cc(NCCCN[C@H]2CCOc3c(Br)cc(Br)cc32)[nH]c2ccccc12 (single isomer, unassigned) [Example 7, di-hydrochloride]
pKi [1]: 7.10 to 7.62

O=c1cc(NCCCN[C@@H]2CCNc3c(Br)cc(Br)cc32)[nH]c2ccsc12 (single isomer, unassigned) [Example 8, tri-hydrochloride]
inhibition of mammalian (rat) MetRS [2]: no inhibition
MIC90 ([3]; 24 h): 0.25 to 4 mg/L
pKi [1]: 10.60 to 10.82
